# In patent publication US20250059191A1, “CRYSTALLINE FORMS OF DIAZABICYCLOOCTANE DERIVATIVE AND PRODUCTION PROCESS THEREOF” (MEIJI SEIKA PHARMA CO., LTD., priority 2013, published 2025):
# Experiments:
# Format in all cases: physicochemical
# [1] = Stability test of amorphous form and crystalline forms I-IV, 40° C./75% RH, airtight container
# Description: Crystalline form III of Example 7a were dissolved in water and subjected to lyophilisation to afford (2S,5R)-N-(2-aminoethoxy)-7-oxo-6-(sulfooxy)-1,6-diazabicyclo[3.2.1]octane-2-carboxamide (VII-1) in an amorphous form. The compounds in an amorphous form and crystalline forms I-IV of Examples 5-8 were each weighed in a screw bottle, and stability tests were conducted at each of the temperatures and humidity conditions. The methods of measurement of related substances, content measurement, and water content measurement were as follows.
# (§1) Samples were dissolved in water, and these solutions were used as sample solutions. The sample solutions each in the amount of 5 μL were tested under the following conditions by JP16, Liquid Chromatography <2.01>to obtain the amount of each related substance (%) and the total amount of related substances (%), and the content.
# (§2) • Column: Waters Atlantis dc18, 5 μm, 4.6×250 mm • Column temperature: a constant temperature of about 35° C. • Injected amount: 5 μL • Detector: an ultraviolet absorption photometer (wavelength: 210 nm) • Mobile phase A: 1.32 g of diammonium hydrogenphosphate was dissolved in 900 mL of water, and phosphoric acid was added to adjust the pH to 3.0. To this was then added water to make 1000 mL. • Mobile phase B: Acetonitrile for liquid chromatography • Gradient program: The mixing ratio of mobile phase A to mobile phase B was controlled as the following time program.
# (§3) About 20 mg of the product was precisely measured and tested by JP16, Water Determination <2.48>Coulometric titration.
# [2] = Solubility in aqueous isopropanol solution
# Text: Crystalline forms I, II and III are distinguished by DSC, solubility in aqueous isopropanol, and lattice spacing in powder X-ray diffraction patterns. […]
# [3] = Experiment on crystal transformation (powder X-ray diffraction after stirring suspension or storage)
# Description: (§4) Crystal transformation in the polymorphism of the compound represented by Formula (VII-1) obtained in the present invention are not observed in a stability test carried out at 40° C. in the solid state or in stirring the suspension in a hydrous solvent for a long time. When crystalline form III of the compound represented by Formula (VII-1) was subjected to an XRD-DSC experiment, heated to 160° C. at 60% RH, and then allowed to cool on standing to 63° C., the crystalline form changed to anhydrous crystalline form over about 145° C., and then returned to the crystalline form III below about 90° C. after cooling. On the basis of these findings, a crystalline form of a compound represented by Formula (VII-1), particularly the crystalline form III constitutes a stable form under ordinary conditions.
# A small amount of a suspension of the crystals of Example 6a was taken and stirred at room temperature for one day. The precipitated crystals were collected and subjected to powder X-ray crystal diffraction.
# In the step of Example 7a, a small amount was taken out of the suspension immediately after the seeding and of the suspension after the dropwise addition of isopropanol, and each of the taken-out portions was stirred with a stirring bar at room temperature for one day and four days. The precipitated crystals were collected and subjected to powder X-ray crystals diffraction.
# Crystalline form IV of Examples 8a-c was taken and isopropanol/water (6/1) was added thereto and suspended and stirred at 25° C. or 40° C. for one week. Samples were taken after 12 hours, 24 hours (one day), 48 hours (two days), 72 hours (three days), 96 hours (four days) and 168 hours (one week), and subjected to powder X-ray crystal diffraction after through-flow drying.
# [4] = XRD-DSC experiment on crystalline form III (crystal transformation by heating)
# Description: as §4
# Crystal transformation by heating in polymorphism of crystalline form III of Example 7a was examined using XRD-DSC. Heating and cooling conditions were as follows: the temperature was elevated at a rate of 2° C./min from room temperature to 160° C. and then cooled to 63° C. under a constant relative humidity (RH) of 60%. DSC and XRD of the samples were successively measured. […]
# [5] = Stability of crystalline form III in a packaging container; conditions: polyethylene bag/aluminium laminated bag
# Description: as §1, §2, §3
# Crystalline form III was packaged under the following conditions and stability tests were conducted at each of the temperatures and humidity conditions under analysis conditions of Example 9a. The results are shown in Tables 10-12. • Packaging container • Inner bag: a low-density polyethylene·nylon tie band • Outer bag: an aluminium laminated bag·heat sealed
# [6] = 60° C., 4 weeks (text: 1 month)
smiles,measurement,setting,value
"NCCONC(=O)[C@@H]1CC[C@@H]2CN1C(=O)N2OS(=O)(=O)O [Amorphous form, (2S,5R)-N-(2-aminoethoxy)-7-oxo-6-(sulfooxy)-1,6-diazabicyclo[3.2.1]octane-2-carboxamide]",Content,[1]; 1 month,93.3%
same,Total amount of related substances,[1]; 1 month,6.6%
same,Water content,[1]; 1 month,3.3%
same,Content,[1]; 3 months,87.5%
same,Total amount of related substances,[1]; 3 months,12.3%
same,Water content,[1]; 3 months,3.8%
same,Content,[1]; at start,99.4%
same,Total amount of related substances,[1]; at start,0.5%
same,Water content,[1]; at start,1.3%
"NCCONC(=O)[C@@H]1CC[C@@H]2CN1C(=O)N2OS(=O)(=O)O [Crystalline form I, (2S,5R)-N-(2-aminoethoxy)-7-oxo-6-(sulfooxy)-1,6-diazabicyclo[3.2.1]octane-2-carboxamide]",Content,[1]; 1 month,99.9%
same,Total amount of related substances,[1]; 1 month,0.0%
same,Water content,[1]; 1 month,5.4%
same,Content,"[1]; 1 month, listed as Form I",99.9%
same,Total amount of related substances,"[1]; 1 month, listed as Form I",0.0%
same,Water content,"[1]; 1 month, listed as Form I",5.4%
same,Content,[1]; 3 months,99.8%
same,Total amount of related substances,[1]; 3 months,0.1%
same,Water content,[1]; 3 months,5.6%
same,Content,"[1]; 3 months, listed as Form I",99.8%
same,Total amount of related substances,"[1]; 3 months, listed as Form I",0.1%
same,Water content,"[1]; 3 months, listed as Form I",5.6%
same,Content,[1]; at start,99.9%
same,Total amount of related substances,[1]; at start,0.1%
same,Water content,[1]; at start,5.4%
same,Content,"[1]; at start, listed as Form I",99.9%
same,Total amount of related substances,"[1]; at start, listed as Form I",0.1%
same,Water content,"[1]; at start, listed as Form I",5.4%
same,"Solubility in aqueous isopropanol, comparison of crystalline forms I, II and III",[2],lowest solubility
same,Solubility in an aqueous 60% isopropanol solution,[2]; 10° C.,0.44%
same,Solubility in an aqueous 60% isopropanol solution,[2]; 20° C.,0.48%
"NCCONC(=O)[C@@H]1CC[C@@H]2CN1C(=O)N2OS(=O)(=O)O [Crystalline form II, (2S,5R)-N-(2-aminoethoxy)-7-oxo-6-(sulfooxy)-1,6-diazabicyclo[3.2.1]octane-2-carboxamide]",Crystal transformation to a different crystal form,"[3]; suspension of the crystals stirred at room temperature for one day, powder X-ray diffraction",No crystal transformation to a different crystal form was observed
same,Content,[1]; 1 month,99.8%
same,Total amount of related substances,[1]; 1 month,0.0%
same,Water content,[1]; 1 month,5.6%
same,Content,"[1]; 1 month, listed as Form II",99.8%
same,Total amount of related substances,"[1]; 1 month, listed as Form II",0.0%
same,Water content,"[1]; 1 month, listed as Form II",5.6%
same,Content,[1]; 3 months,99.3%
same,Total amount of related substances,[1]; 3 months,0.5%
same,Water content,[1]; 3 months,5.9%
same,Content,"[1]; 3 months, listed as Form II",99.3%
same,Total amount of related substances,"[1]; 3 months, listed as Form II",0.5%
same,Water content,"[1]; 3 months, listed as Form II",5.9%
same,Content,[1]; at start,99.8%
same,Total amount of related substances,[1]; at start,0.1%
same,Water content,[1]; at start,5.7%
same,Content,"[1]; at start, listed as Form II",99.8%
same,Total amount of related substances,"[1]; at start, listed as Form II",0.1%
same,Water content,"[1]; at start, listed as Form II",5.7%
same,Solubility in an aqueous 60% isopropanol solution,[2]; 10° C.,0.67%
same,Solubility in an aqueous 60% isopropanol solution,[2]; 20° C.,0.74%
"NCCONC(=O)[C@@H]1CC[C@@H]2CN1C(=O)N2OS(=O)(=O)O [Crystalline form III, (2S,5R)-N-(2-aminoethoxy)-7-oxo-6-(sulfooxy)-1,6-diazabicyclo[3.2.1]octane-2-carboxamide]",Crystal transformation to a different crystal form,"[3]; suspensions after seeding and after isopropanol addition, stirred at room temperature for one day and four days",No crystal transformation to a different crystal form was observed
same,Temperature at which it returned to the crystalline form III after cooling,[4]; allowed to cool to 63° C. at 60% RH,below 90 °C
same,Temperature at which the crystalline form changed to anhydrous crystalline form,[4]; heated to 160° C. at 60% RH,over 145 °C
same,Content,[1]; 1 month,100.0%
same,Total amount of related substances,[1]; 1 month,0.0%
same,Water content,[1]; 1 month,5.3%
same,Content,"[1]; 1 month, listed as Form III",100.0%
same,Total amount of related substances,"[1]; 1 month, listed as Form III",0.0%
same,Water content,"[1]; 1 month, listed as Form III",5.3%
same,Content,[1]; 3 months,99.9%
same,Total amount of related substances,[1]; 3 months,0.0%
same,Water content,[1]; 3 months,5.5%
same,Content,"[1]; 3 months, listed as Form III",99.9%
same,Total amount of related substances,"[1]; 3 months, listed as Form III",0.0%
same,Water content,"[1]; 3 months, listed as Form III",5.5%
same,Content,[1]; at start,99.9%
same,Total amount of related substances,[1]; at start,0.0%
same,Water content,[1]; at start,5.3%
same,Content,"[1]; at start, listed as Form III",99.9%
same,Total amount of related substances,"[1]; at start, listed as Form III",0.0%
same,Water content,"[1]; at start, listed as Form III",5.3%
same,Solubility in an aqueous 60% isopropanol solution,[2]; 10° C.,0.76%
same,Solubility in an aqueous 60% isopropanol solution,[2]; 20° C.,0.80%
same,Content,"[5]; 25° C./60% RH, 3 months",99.9%
same,Total amount of related substances,"[5]; 25° C./60% RH, 3 months",0.07%
same,Water content,"[5]; 25° C./60% RH, 3 months",5.23%
same,Content,"[5]; 25° C./60% RH, at start",99.9%
same,Total amount of related substances,"[5]; 25° C./60% RH, at start",0.09%
same,Water content,"[5]; 25° C./60% RH, at start",5.32%
same,Content,"[5]; 40° C./75% RH, 1 month",99.9%
same,Total amount of related substances,"[5]; 40° C./75% RH, 1 month",0.07%
same,Water content,"[5]; 40° C./75% RH, 1 month",5.51%
same,Content,"[5]; 40° C./75% RH, 2 months",99.9%
same,Total amount of related substances,"[5]; 40° C./75% RH, 2 months",0.04%
same,Water content,"[5]; 40° C./75% RH, 2 months",5.27%
same,Content,"[5]; 40° C./75% RH, 3 months",99.9%
same,Total amount of related substances,"[5]; 40° C./75% RH, 3 months",0.06%
same,Water content,"[5]; 40° C./75% RH, 3 months",5.29%
same,Content,"[5]; 40° C./75% RH, at start",99.9%
same,Total amount of related substances,"[5]; 40° C./75% RH, at start",0.09%
same,Water content,"[5]; 40° C./75% RH, at start",5.20%
same,Content,"[5]; 60° C., 2 weeks",99.9%
same,Total amount of related substances,"[5]; 60° C., 2 weeks",0.02%
same,Water content,"[5]; 60° C., 2 weeks",5.20%
same,Content,[5]; [6],99.9%
same,Total amount of related substances,[5]; [6],0.04%
same,Water content,[5]; [6],5.08%
same,Content,"[5]; 60° C., at start",99.9%
same,Total amount of related substances,"[5]; 60° C., at start",0.09%
same,Water content,"[5]; 60° C., at start",5.20%
"NCCONC(=O)[C@@H]1CC[C@@H]2CN1C(=O)N2OS(=O)(=O)O [Crystalline form IV, (2S,5R)-N-(2-aminoethoxy)-7-oxo-6-(sulfooxy)-1,6-diazabicyclo[3.2.1]octane-2-carboxamide]",Crystal transformation to a different crystal form,"[3]; suspended in isopropanol/water (6/1), stirred at 25° C. or 40° C., 12 hours to one week",No crystal transformation to a different crystal form was observed
same,Content,[1]; 1 month,99.8%
same,Total amount of related substances,[1]; 1 month,0.0%
same,Water content,[1]; 1 month,0.1%
same,Content,"[1]; 1 month, listed as Form IV",99.8%
same,Total amount of related substances,"[1]; 1 month, listed as Form IV",0.0%
same,Water content,"[1]; 1 month, listed as Form IV",0.1%
same,Content,[1]; at start,99.9%
same,Total amount of related substances,[1]; at start,0.0%
same,Water content,[1]; at start,0.1%
same,Content,"[1]; at start, listed as Form IV",99.9%
same,Total amount of related substances,"[1]; at start, listed as Form IV",0.0%
same,Water content,"[1]; at start, listed as Form IV",0.1%
